According to patent US11497713B2, “Combination taxoid nanoemulsion with immunotherapy in cancer” (TargaGenix, Inc., priority 2017, dated 2022):

System: colon and prostate cancer cell lines grown as spheroids
Assay: Spheroid assay with CD133high/CD44high colon and prostate cancer cells
Assay type: cell-based
Conditions: cells selected for CD133high/CD44high
Excerpt: The results from experiments using DHA-SBT-1214 in two human pancreatic tumor models (FIGS. 2 and 3) and a proof-of-concept in patient-derived CSC model are described below. The compelling aspects of DHA-SBT-1214 preclinical activity is its effects on CSCs. Highly plastic CSCs are an important new drug target in the treatment of refractory tumors. Through the development of drugs specifically targeting CSCs (or targeting CSCs in addition to tumor cells) a more durable clinical response may be possible. In addition to the previously described cytotoxicity assays in cell cultures, DHA-SBT-1214 was tested in colon and prostate cancer cell lines grown as spheroids from cells selected for being CD133^high/CD44^high, characteristic of stem cells. […] Perhaps more significant was the effect of exposure to relatively low concentrations of DHA-SBT-1214 (100 nM to 1 μM) for 24 hours on the expression of genes associated with “sternness” in several colon and prostate cancer cells lines grown as microspheres (6,7).

## CC/C=C\C/C=C\C/C=C\C/C=C\C/C=C\C/C=C\CCC(=O)O[C@@H](C(=O)O[C@H]1C[C@@]2(O)[C@@H](OC(=O)c3ccccc3)[C@@H]3[C@]4(OC(C)=O)CO[C@@H]4C[C@H](O)[C@@]3(C)C(=O)[C@H](OC(=O)C3CC3)C(=C1C)C2(C)C)[C@H](C=C(C)C)NC(=O)OC(C)(C)C [DHA-SBT-1214, Docosahexaenoic acid conjugate of SBT-1214]
  number of spheroids: greatly reduced
